Consider 45 molecules from US11198696B2, “Substituted xanthines as inhibitors of transient receptor potential cation channel subfamily c, member 5 activity” (Boehringer Ingelheim International GmbH, priority 2018, dated 2021).

pIC50: −log10 of the molar value. A value given as a limit tells only on which side of the number the result lay.

The target of one test is T1, TRPC5 (Homo sapiens, UniProt Q9UL62).
T1 construct: expressed in transfected cells; host or cells: HEK293 TREx cells, inducible TRPC5 expression, induced 20-48 hours
T1 sequence (Q9UL62 1-973): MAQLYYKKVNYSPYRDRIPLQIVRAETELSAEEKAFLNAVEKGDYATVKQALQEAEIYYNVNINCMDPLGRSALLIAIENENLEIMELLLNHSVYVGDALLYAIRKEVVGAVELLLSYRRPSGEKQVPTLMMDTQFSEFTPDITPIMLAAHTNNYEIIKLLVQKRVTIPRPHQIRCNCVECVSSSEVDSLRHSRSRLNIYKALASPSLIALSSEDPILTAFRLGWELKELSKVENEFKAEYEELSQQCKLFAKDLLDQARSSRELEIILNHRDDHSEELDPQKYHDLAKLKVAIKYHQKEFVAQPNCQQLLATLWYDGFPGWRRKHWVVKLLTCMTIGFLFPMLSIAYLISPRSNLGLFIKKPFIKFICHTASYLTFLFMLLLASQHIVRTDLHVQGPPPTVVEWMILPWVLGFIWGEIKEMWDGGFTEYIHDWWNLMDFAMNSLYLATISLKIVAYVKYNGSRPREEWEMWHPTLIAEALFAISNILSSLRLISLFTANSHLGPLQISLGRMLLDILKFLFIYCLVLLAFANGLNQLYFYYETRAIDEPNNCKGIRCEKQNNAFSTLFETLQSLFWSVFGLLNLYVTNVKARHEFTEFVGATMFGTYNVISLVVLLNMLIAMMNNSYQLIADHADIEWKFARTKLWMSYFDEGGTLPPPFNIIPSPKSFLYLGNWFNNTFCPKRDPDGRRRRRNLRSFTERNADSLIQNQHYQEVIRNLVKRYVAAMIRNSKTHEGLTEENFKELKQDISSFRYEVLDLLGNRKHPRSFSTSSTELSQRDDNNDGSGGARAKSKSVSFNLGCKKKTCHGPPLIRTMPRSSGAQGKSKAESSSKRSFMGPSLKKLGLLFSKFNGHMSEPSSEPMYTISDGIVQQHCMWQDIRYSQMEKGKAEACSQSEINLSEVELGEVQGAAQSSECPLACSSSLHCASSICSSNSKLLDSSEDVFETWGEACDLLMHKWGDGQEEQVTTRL
Kind of test: Assay A: Determination of TRPC5-Inhibition (whole-cell patch clamp). It counts as cell-based. To be noted: closest prior art compounds of WO2014/143799, TRPC5-expressing HEK293 TREx cells, LaCl3-activated current. From the text:
Assay A: Determination of TRPC5-Inhibition
Patch clamp experiments permit the detection of currents through the TRPC5 channel in a cell line. In normal whole-cell patch clamp recordings, a glass electrode is brought into contact with a single cell and a high-resistance (gigaohm) seal is established with the cell membrane. The membrane is then ruptured to achieve the whole-cell configuration, permitting control of the voltage of the cell membrane and measurement of currents flowing across the membrane using the amplifier attached to the electrode and resulting in the replacement of cytoplasm with the pipette solution. A perfusion system permits control of the extracellular solution, including the addition of blockers and activators of the current. The current can be activated by including 1.4 μM free Ca2+ in the pipette (intracellular) solution, and 80 μM LaCl3 in the extracellular solution.
TRPC5 cells were induced 20-48 hours, removed from growth plates, and replated at low density (to attain good single-cell physical separation) on glass coverslips for measurement. In some cases, cells were grown in low density overnight on glass coverslips. Patch clamp recordings were made in the whole-cell mode with a holding potential of −40 mV. Every 5 seconds, a voltage ramp was applied from −120 to +100 mV, 400 ms in duration. Currents elicited were quantified at −80 mV and +80 mV. The internal solution consisted of 140 mM cesium aspartate, 10 mM HEDTA, 2 mM CaCl2, 2.27 mM MgCl2 and 10 mM HEPES, pH 7.2, with 1,400 nM calculated free Ca2+. The external solution consisted of 150 mM NaCl, 4.5 mM 15 KCl, 1 mM MgCl2, 2 mM CaCl2, 10 mM HEPES, 10 mM glucose, 1 mM EGTA, pH 7.4. Upon addition of LaCl3, TRPC5 current was induced only in TRPC5-expressing cells and not in parental HEK293 TREx cells. Removal of the LaCh stimulus causes most of the current to go away. Potential blockers were tested for ability to block both inward and outward currents in the continued presence of LaCl3.
IC50 of a compound of the invention was estimated by testing the compound 500 nM. […] Compounds blocking 50% or more at 500 nM are retested at multiple concentrations, and the % block is fitted by standard equations to determine IC50 accurately, using a 5/6 point concentration-response experiment.
In general terms: The patch-clamp technique gives a direct electrical read-out from membranes.
In general, pIC50 refers to −log10 of the IC50, conventionally taken in molar units. Consider `COc1ccc(-c2nc3c(c(=O)n(CCCO)c(=O)n3C)n2Cc2ccc(F)cc2)cc1` [Example 465 in WO2014/143799, reference compound], for which the pIC50 was 7.28.

Still in this test, the particulars now being: compounds of the present invention, TRPC5-expressing HEK293 TREx cells, LaCl3-activated current.
Consider `CCn1c(=O)n(CCCO)c(=O)c2c1nc(-c1ccc(OC3CC(F)(F)C3)nc1C)n2Cc1ccc(F)cc1` [Example 47], for which the pIC50 is 9.07.
Same read-out and setting: in the case of `CCn1c(=O)n(CCCO)c(=O)c2c1nc(-c1ccc(OC3CC(C)C3)nc1C)n2Cc1ccc(F)cc1` (stereo not drawn) [Example 18] it was 9.68.
The molecule `CCn1c(=O)n(CCCO)c(=O)c2c1nc(-c1ccc(OC3CC(C)(C)C3)nc1C)n2Cc1ccc(F)cc1` [Example 24] gave a pIC50 of 9.55.
The same measure, in the same setting: under `CCn1c(=O)n(CCCO)c(=O)c2c1nc(-c1ccc(OC3CCC3)nc1C)n2Cc1ccc(Cl)cc1` [Example 36] stands 9.26; under `CCn1c(=O)n(CCCO)c(=O)c2c1nc(-c1ccc(OC3CC(C)(C)C3)nc1C)n2Cc1ccccc1` [Example 32], 9.34.
Consider `CCn1c(=O)n(CCCO)c(=O)c2c1nc(-c1ccc(OC3CC(C)C3)nc1C)n2Cc1ccc(Cl)cc1` (stereo not drawn) [Example 17], for which the pIC50 is 9.70.
Same read-out and setting: under `CCn1c(=O)n(CCCO)c(=O)c2c1nc(-c1ccc(OC3CCC3)nc1)n2Cc1ccc(C(F)(F)F)cc1` [Example 54] stands 8.80; under `CCn1c(=O)n(CCCO)c(=O)c2c1nc(-c1ccc(OC3CCC3)nc1)n2Cc1ccc(C)cc1` [Example 55], 8.67; under `CCn1c(=O)n(CCCO)c(=O)c2c1nc(-c1ccc(OC3CCC3C)nc1C)n2Cc1ccc(F)cc1` (stereo not drawn) [Example 41], 9.16.
The same measure, in the same setting: under `CCn1c(=O)n(CCCO)c(=O)c2c1nc(-c1ccc(OC3CCC3C)nc1)n2Cc1ccc(F)cc1` (stereo not drawn) [Example 51] stands 8.87; under `Cc1nc(OC2CCCC2)ccc1-c1nc2c(c(=O)n(CCCO)c(=O)n2C(C)C)n1Cc1ccccc1` [Example 9], 9.89.
The same measure, in the same setting: under `CCn1c(=O)n(CCCO)c(=O)c2c1nc(-c1ccc(OC3CCCCC3)nc1C)n2Cc1ccc(F)cc1` [Example 29] stands 9.39; under `CCn1c(=O)n(CCCO)c(=O)c2c1nc(-c1ccc(OC3CCC3C)nc1C)n2Cc1ccccc1` (stereo not drawn) [Example 60], 8.68.
The molecule `Cc1nc(OC2CCCC2)ccc1-c1nc2c(c(=O)n(CCCO)c(=O)n2C(C)C)n1Cc1ccc(F)cc1` [Example 4] gave a pIC50 above 10.00.
`CCC(C)n1c(=O)n(CCCO)c(=O)c2c1nc(-c1ccc(OC3CCC3)nc1C)n2Cc1ccccc1` (stereo not drawn) [Example 42] gave a pIC50 of 9.15.
`CCn1c(=O)n(CCCO)c(=O)c2c1nc(-c1cc(F)c(OC3CCC3)nc1C)n2Cc1ccc(F)cc1` [Example 13] gave a pIC50 of 9.76.
As to `CCn1c(=O)n(CCCO)c(=O)c2c1nc(-c1ccc(OC3CCC3(C)C)nc1C)n2Cc1ccc(F)cc1` (stereo not drawn) [Example 11], the pIC50 was 9.79.
The same measure, in the same setting: in the case of `CCn1c(=O)n(CCCO)c(=O)c2c1nc(-c1ccc(O[C@H]3C[C@H](C)C3)nc1C)n2Cc1ccccc1` [Example 28] it was 9.04.
On the same count and under the same terms, in the case of `Cc1nc(OC2CCCCC2)ccc1-c1nc2c(c(=O)n(CCCO)c(=O)n2C(C)C)n1Cc1ccccc1` [Example 2] it was 10.02.
On the same count and under the same terms, under `Cc1nc(OC2CCC2)ccc1-c1nc2c(c(=O)n(CCCO)c(=O)n2C2CCC2)n1Cc1ccccc1` [Example 16] stands 9.72; under `CCn1c(=O)n(CCCO)c(=O)c2c1nc(-c1ccc(O[C@H]3CCC[C@@H]3C)nc1C)n2Cc1ccc(Cl)cc1` (racemic) [Example 21], 9.60.
The molecule `CCn1c(=O)n(CCCO)c(=O)c2c1nc(-c1ccc(OC3CCC3)nc1)n2Cc1ccc(Cl)cc1F` [Example 53] had a pIC50 of 8.80.
Same read-out and setting: under `Cc1nc(OC2CC(F)(F)C2)ccc1-c1nc2c(c(=O)n(CCCO)c(=O)n2C(C)C)n1Cc1ccc(F)cc1` [Example 25] stands 9.51; under `Cc1nc(OC2CC=CC2)ccc1-c1nc2c(c(=O)n(CCCO)c(=O)n2C(C)C)n1Cc1ccccc1` [Example 22], 9.58; under `CCn1c(=O)n(CCCO)c(=O)c2c1nc(-c1ccc(OC3CCC3)nc1F)n2Cc1ccc(F)cc1` [Example 62], 8.47.
Same read-out and setting: in the case of `CCC(C)n1c(=O)n(CCCO)c(=O)c2c1nc(-c1ccc(OC3CCCC3)nc1C)n2Cc1ccccc1` (stereo not drawn) [Example 37] it was 9.22; in that of `CCn1c(=O)n(CCCO)c(=O)c2c1nc(-c1ccc(OC3CCC3)nc1)n2Cc1ccc(Cl)cc1` [Example 48], 9.06; in that of `CCn1c(=O)n(CCCO)c(=O)c2c1nc(-c1ccc(OC3CCC3)nc1)n2Cc1ccc(F)cc1` [Example 64], 8.57.
On to `CCn1c(=O)n(CCCO)c(=O)c2c1nc(-c1ccc(OC3CC(C)C3)nc1C)n2Cc1ccccc1` (stereo not drawn) [Example 34], for which the pIC50 was 9.31.
Same read-out and setting: in the case of `CCn1c(=O)n(CCCO)c(=O)c2c1nc(-c1ccc(OC3CCC3C)nc1)n2Cc1ccc(Cl)cc1` (stereo not drawn) [Example 40] it was 9.19; in that of `CCC(C)n1c(=O)n(CCCO)c(=O)c2c1nc(-c1ccc(OC3CC(C)C3)nc1C)n2Cc1ccccc1` (stereo not drawn) [Example 20], 9.61; in that of `CCn1c(=O)n(CCCO)c(=O)c2c1nc(-c1ccc(OC3CCCC3)nc1C)n2Cc1ccc(Cl)cc1` [Example 23], 9.56.
The molecule `Cc1nc(OC2CC(F)(F)C2)ccc1-c1nc2c(c(=O)n(CCCO)c(=O)n2C(C)C)n1Cc1ccccc1` [Example 43] showed a pIC50 of 9.14.
Same read-out and setting: in the case of `Cc1nc(OC2CCC2C)ccc1-c1nc2c(c(=O)n(CCCO)c(=O)n2C(C)C)n1Cc1ccccc1` (stereo not drawn) [Example 19] it was 9.63.
Same read-out and setting: in the case of `Cc1nc(OC2CCC2)ccc1-c1nc2c(c(=O)n(CCCO)c(=O)n2C(C)C)n1Cc1ccccc1` [Example 30] it was 9.37; in that of `CCn1c(=O)n(CCCO)c(=O)c2c1nc(-c1ccc(OC3CCC3C)nc1C)n2Cc1ccc(Br)cc1` (stereo not drawn) [Example 14], 9.75.
Still for that read-out and setting: in the case of `CCn1c(=O)n(CCCO)c(=O)c2c1nc(-c1cc(F)c(OC3CCC3)nc1C)n2Cc1ccccc1` [Example 39] it was 9.20; in that of `C#Cc1ccc(Cn2c(-c3ccc(OC4CCC4)nc3)nc3c2c(=O)n(CCCO)c(=O)n3CC)cc1` [Example 57], 8.57.
For `Cc1nc(OC2CCC2C)ccc1-c1nc2c(c(=O)n(CCCO)c(=O)n2C(C)C)n1Cc1ccc(F)cc1` (stereo not drawn) [Example 1], the pIC50 is above 10.49.
Same read-out and setting: in the case of `CCn1c(=O)n(CCCO)c(=O)c2c1nc(-c1ccc(OC3CCC3)nc1)n2Cc1ccc(SC(F)(F)F)cc1` [Example 46] it was 9.09; in that of `CCn1c(=O)n(CCCO)c(=O)c2c1nc(-c1ccc(OC3CCC3C)nc1C)n2Cc1ccc(Cl)cc1` (stereo not drawn) [Example 3], 10.00.
`Cc1nc(OC2CCC23CCC3)ccc1-c1nc2c(c(=O)n(CCCO)c(=O)n2C(C)C)n1Cc1ccccc1` (stereo not drawn) [Example 6]: the pIC50 is above 10.00.
For the molecule `CCn1c(=O)n(CCCO)c(=O)c2c1nc(-c1ccc(OC3CCCC3)nc1C)n2Cc1ccccc1` [Example 61], the pIC50 was 8.62.
The same measure, in the same setting: in the case of `CCn1c(=O)n(CCCO)c(=O)c2c1nc(-c1ccc(OC3CC4CCC3C4)nc1C)n2Cc1ccc(F)cc1` (stereo not drawn) [Example 7] it was 9.98.
